What was measured:
[1] = tested on: 5'-T8G4T G-quadruplex, (T8G4T)4 (DNA, G4) TTTTTTTTGGGGT; test: UV-vis titration, Soret band 404 nm; settings: 40 mM Tris-HCl pH 8.0, 1% DMF, 0.05% Triton X-100, 25 °C, 0.5 μM heme
[2] = tested on: 5'-T8iG4T isoguanine pentaplex, (T8iG4T)5 (DNA, other, 2'-deoxyisoguanine at 9, 10, 11, 12 (written as G)) TTTTTTTTGGGGT; test: UV-vis titration, Soret band 404 nm; settings: 20 mM NaCl; 40 mM Tris-HCl pH 8.0, 1% DMF, 0.05% Triton X-100, 25 °C; 0.5 μM heme
[3] = tested on: 5'-T8iG4T isoguanine quadruplex, (T8iG4T)4 (DNA, other, 2'-deoxyisoguanine at 9, 10, 11, 12 (written as G)) TTTTTTTTGGGGT; test: UV-vis titration, Soret band; settings: 20 mM KCl; 40 mM Tris-HCl pH 8.0, 1% DMF, 0.05% Triton X-100, 25 °C; highest DNA tested 70 μM

Kd ([1]; 20 mM KCl): 7.89 ± 0.96 µM
Kd ([1]; 20 mM NaCl): 3.22 ± 0.43 µM
Kd [2]: 1.28 ± 0.05 µM
binding [3]: no
Compound: C=CC1=C(C)C2=Cc3c(C=C)c(C)c4[n]3[Fe]([Cl])[n]3c(c(C)c(CCC(=O)O)c3=CC3=NC(=C4)C(C)=C3CCC(=O)O)=CC1=N2

Reference: paper PMC4417173 (2015)
